Experimental data taken from patent US7067476B2, “Peptide derivative, and pharmaceutically acceptable salt thereof, process for producing the same, and use thereof” (priority 2001, dated 2006).

Tests used:
Lys-gingipain (KGP) = Lys-gingipain (KGP) (Porphyromonas gingivalis, UniProt B2RLK2); test: Inhibitory activity against Lys-gingipain (KGP), substrate Cbz-His-Glu-Lys-MCA; assay type: biochemical; conditions: read-out: Enzyme inhibitory activity (%) KGP
Protocol: (§1) The inhibitory activity against Lys-gingipain (KGP) was measured by the method of Abe et al. (Journal Biochemistry, 1998, Vol. 123, 305–312) using Cbz-His-Glu-Lys-MCA as a substrate. The inhibitory activity against Arg-gingipain (RGP) was measured by the method of Kadowaki et al. (Journal Biological Chemistry, 1994, Vol. 269, 21371–21378) using Cbz-Phe-Arg-MCA as a substrate. More specifically, the measurements were carried out in the following manner: 100 μl of 50 mM L-cystein, 200 μl of a 0.1 M sodium phosphate buffer solution (pH 7.5), 20 μl of 12.3 nM KGP or RGP solution containing 0.05% “Brij35” (a tradename, product of Aldrich, polyoxyethylene(23) lauryl ether), 80 μl of distilled water and 100 μl of a dimethyl sulfoxide solution of a compound according to the invention were mixed and preincubated at 37° C. for 5 minutes. Thereafter, 500 μl of a 0.1% dimethyl sulfoxide solution containing 20 μM Cbz-His-Glu-Lys-MCA (for KGP) or Cbz-Phe-Arg-MCA (for RGP) was added, followed by incubation at 40° C. for 10 minutes. An acetic acid buffer solution (pH 5.0) containing 10 mM iodoacetamide was then added to stop the enzyme reaction. The fluorescence intensity (F) at 460 nm upon excitation at 380 nm was measured.

Arg-gingipain (RGP) = test: Inhibitory activity against Arg-gingipain (RGP), substrate Cbz-Phe-Arg-MCA; assay type: biochemical, Porphyromonas gingivalis
Protocol: as §1

Q: `Cl.NCCCC[C@H](NC(=O)[C@H](CCC(=O)O)NC(=O)OCc1ccccc1)C(=O)C(=O)N[C@@H](CCCNC(N)=N[N+](=O)[O-])C(=O)C(=O)NCCc1ccccc1` [Example 3] was tested. Which inhibition at 1 µM (Lys-gingipain (KGP)) did it give?
A: The inhibition at 1 µM was 99.9%.

Q: What about the inhibition at 10 µM (Lys-gingipain (KGP)) of the same compound?
A: Its inhibition at 10 µM is 99.9%.

Q: What about the inhibition at 100 µM (Lys-gingipain (KGP)) of the same compound?
A: Its inhibition at 100 µM is 100%.

Q: What about the “Enzyme inhibitory activity (%) RGP” value (Arg-gingipain (RGP); concentration 10^−4 mol/l) of the same compound?
A: Its value is 99.4%.

Q: What about the “Enzyme inhibitory activity (%) RGP” value (Arg-gingipain (RGP); concentration 10^−5 mol/l) of the same compound?
A: The value was 96.8%.

Q: What about the “Enzyme inhibitory activity (%) RGP” value (Arg-gingipain (RGP); concentration 10^−6 mol/l) of the same compound?
A: Its value is 81.1%.
